The source of these data is the supplement of paper PMC6965134.

A short description of this data set: TIMS collisional cross section (CCS, N2) of the lipid ion; higher = larger ion cross section. The conditions noted are these: ionization mode: negative, one isomer drawn. The protocol: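 Lipid extracts of human plasma (NIST SRM 1950), mouse liver or HeLa cells were separated by nanoflow C18 LC (30 min gradient) and analysed by TIMS-PASEF on a timsTOF Pro. Ion mobility was calibrated with the Agilent tuning mix (negative mode ions) and converted to collisional cross sections (Mason–Schamp, N2).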

SMILES strings stand for the structures. ± gives the standard deviation of the averaged measurements.
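Further: lipids from MTBE extraction, five replicate injections per sample, 100 ms TIMS ramp spanning 0.6–1.95 Vs/cm², lipid identity assigned from PASEF MS/MS spectra.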

For the compound `CCCCCC/C=C\CCCCCCCCCC(=O)O[C@H](COC(=O)CCCCCCCCCCCCC)COP(=O)([O-])OCC[N+](C)(C)C` [PC 14:0@_18:1], the “TIMS collisional cross section” value (sample type: Human plasma, ion (formula + adduct): [C40H78NO8P+HCOO] 1-) turned out to be 286 Å².
Take `CC/C=C\C/C=C\C/C=C\C/C=C\C/C=C\C/C=C\CCC(=O)O[C@H](COC(=O)CCCCCCCCCCCCCCCC)COP(=O)([O-])OCC[N+](C)(C)C` [PC 17:0@_22:6]: the “TIMS collisional cross section” value (sample type: Human plasma, ion (formula + adduct): [C47H82NO8P+HCOO] 1-) was 301.2 Å² and the “TIMS collisional cross section” value (sample type: Mouse Liver, ion (formula + adduct): [C47H82NO8P+HCOO] 1-) is on record as 301.2 Å².
Regarding `CCCCCCCCCCCCCCCCCC(=O)OC[C@H](COP(=O)(O)OCCN)OC(=O)CCCCCCCCCCCCCCC` [PE 18:0_16:0], the “TIMS collisional cross section” value (sample type: Mouse Liver, ion (formula + adduct): [C39H78NO8P-H] 1-) is listed as 269.5 Å².
Turning to `CCCCC/C=C\C/C=C\C/C=C\C/C=C\CCCC(=O)O[C@H](CO/C=C\CCCCCCCCCCCCCC)COP(=O)(O)OCCN` [PE P- 16:0_20:4], the “TIMS collisional cross section” value is, setting by setting: (sample type: Human plasma, ion (formula + adduct): [C41H74NO7P-H] 1-) 270.1 Å²; (sample type: Mouse Liver, ion (formula + adduct): [C41H74NO7P-H] 1-) 270.1 Å².
Take `CCCCC/C=C\C/C=C\C/C=C\C/C=C\CCCC(=O)O[C@H](COC(=O)CCCCCCC/C=C\C/C=C\CCCCC)COP(=O)([O-])OCC[N+](C)(C)C` [PC 18:2_20:4]: the “TIMS collisional cross section” value reads like this: (sample type: Human plasma, ion (formula + adduct): [C46H80NO8P+HCOO] 1-) 296.8 ± 0.92 Å²; (sample type: Mouse Liver, ion (formula + adduct): [C46H80NO8P+HCOO] 1-) 295.7 ± 0.42 Å².
As to `CC/C=C\C/C=C\CC(O)/C=C/C=C\C/C=C\C/C=C\CCC(=O)O[C@H](COC(=O)CCCCCCCCCCCCCCCCC)COP(=O)(O)OCCN` (stereo partly drawn) [Oxidized PE 18:0@_22:6], the “TIMS collisional cross section” value (sample type: Human plasma, ion (formula + adduct): [C45H78NO9P-H] 1-) stood at 285.8 Å².
As to `CCCCC/C=C\C/C=C\C/C=C\C/C=C\CCCC(=O)OC[C@@H](O)COP(=O)(O)O` [LPA 20:4_0:0], the “TIMS collisional cross section” value (sample type: Human plasma, ion (formula + adduct): [C23H39O7P-H] 1-) is on record as 207.1 Å².
As to `CC/C=C\C/C=C\CC(O)/C=C/C=C\C/C=C\C/C=C\CCC(=O)O[C@H](COC(=O)CCCCCCCCCCCCCCC)COP(=O)(O)OCCN` (stereo partly drawn) [Oxidized PE 16:0_22:6], the “TIMS collisional cross section” value is, setting by setting: (sample type: Human plasma, ion (formula + adduct): [C43H74NO9P-H] 1-) 277.85 ± 0.78 Å²; (sample type: Mouse Liver, ion (formula + adduct): [C43H74NO9P-H] 1-) 277.43 ± 0.71 Å².
For the compound `CCCCCC/C=C\CCCCCCCC(=O)OC[C@H](COP(=O)(O)OCCN)OC(=O)CCCCCCC/C=C\CCCCCCC` [PE 16:1_17:1], where the note is “sample type: Mouse Liver, ion (formula + adduct): [C38H72NO8P-H] 1-”, the “TIMS collisional cross section” value worked out at 263.2 Å².
Regarding `CCCCCCCCCCCCCC(=O)OC[C@H](COP(=O)([O-])OCC[N+](C)(C)C)OC(=O)CCCCCCCCCCCCC` [PC 14:0_14:0], the “TIMS collisional cross section” value (sample type: Human plasma, ion (formula + adduct): [C36H72NO8P+HCOO] 1-) is on record as 277.1 Å².
For the compound `CCCCC/C=C\C/C=C\C/C=C\C/C=C\CCCC(=O)O[C@H](COC(=O)CCCCCCCCCCCCCCCC)COP(=O)([O-])OCC[N+](C)(C)C` [PC 17:0_20:4], where the note is “sample type: Mouse Liver, ion (formula + adduct): [C45H82NO8P+HCOO] 1-”, the “TIMS collisional cross section” value came out at 297.2 Å².
For `CC/C=C\C/C=C\C/C=C\C/C=C\C/C=C\C/C=C\CCC(=O)O[C@H](COC(=O)CCCCCCC/C=C\CCCCCCC)COP(=O)(O)OCCN` [PE 17:1_22:6], the “TIMS collisional cross section” value (sample type: Mouse Liver, ion (formula + adduct): [C44H74NO8P-H] 1-) turned out to be 275.5 Å².
Consider `CC/C=C\C/C=C\C/C=C\C/C=C\C/C=C\CCCC(=O)O[C@H](COC(=O)CCCCCCC/C=C\C/C=C\CCCCC)COP(=O)([O-])OCC[N+](C)(C)C` [PC 18:2_20:5], for which the “TIMS collisional cross section” value (sample type: Human plasma, ion (formula + adduct): [C46H78NO8P+HCOO] 1-) is listed as 294.9 Å².
In the case of `CC/C=C\C/C=C\C/C=C\C/C=C\C/C=C\CCCC(=O)OC[C@H](COP(=O)(O)OC1[C@H](O)[C@H](O)C(O)[C@H](O)[C@H]1O)OC(=O)CCCCCCCCCCCCCCC` (stereo partly drawn) [PI 20:5@_16:0], where the note is “sample type: Mouse Liver, ion (formula + adduct): [C45H77O13P-H] 1-”, the “TIMS collisional cross section” value was 290.1 ± 1.1 Å².
Regarding `CCCCC/C=C\C/C=C\C/C=C\CCCCCCC(=O)OC[C@H](COP(=O)(O)OCCN)OC(=O)CCCCCCCCCCCCCCC` [PE 20:3_16:0], for the setting “sample type: Mouse Liver, ion (formula + adduct): [C41H76NO8P-H] 1-”, the “TIMS collisional cross section” value is 271.1 Å².
Regarding `C=CC(=O)O[C@H](COC(=O)CCCCCCCCCCCCCCC)COP(=O)([O-])OCC[N+](C)(C)C` [PC 16:0_3:1], the “TIMS collisional cross section” value (sample type: Human plasma, ion (formula + adduct): [C27H52NO8P+AcO] 1-) came to 245.3 Å² and the “TIMS collisional cross section” value (sample type: Mouse Liver, ion (formula + adduct): [C27H52NO8P+OAcO] 1-) is recorded as 252.2 Å².
Take `CCCCCCCCCCCCCCCC(=O)O[C@H](COC(=O)CCCCCCCCCCCCCC)COP(=O)([O-])OCC[N+](C)(C)C` [PC 15:0_16:0@]: the “TIMS collisional cross section” value is, setting by setting: (sample type: Human plasma, ion (formula + adduct): [C39H78NO8P+HCOO] 1-) 284.9 Å²; (sample type: Human plasma, ion (formula + adduct): [C39H78NO8P+OAcO] 1-) 290.8 Å².
